Measurements as given in patent US20120225921A1, “METHOD OF CONTROLLING PHYTOPATHOGENIC DISEASES ON TURFGRASS” (SYNGENTA CROP PROTECTION, LLC, priority 2006, published 2012).

Assays:
Format in all cases: in vivo
[1] = system: Sclerotinia homoeocarpa; assay: Control of Sclerotinia homoeocarpa on Creeping Bentgrass (Example B-1, plot spray treatment); conditions: 500 g ai/ha, sprayed three times every 14 days, assessed 19 days after last treatment, vs untreated (60% diseased)
Description: The following EC formulations were prepared: […]
(§1) Plots were inoculated with Creeping Bentgrass (Agrostis palustris Huds.) seeds infested with Sclerotinia homoeocarpa, and a quantity of formulations A and B which corresponds to a dose shown in the table below and expressed in g/ha was sprayed on the plots. This treatment was repeated three times at an interval of 1 treatment every 14 days. 19 days after the last treatment, the disease incidence and severity was assessed visually. […] Disease control is shown as % disease control compared to untreated Creeping Bentgrass.

[2] = system: Sclerotinia homoeocarpa; assay: Control of Sclerotinia homoeocarpa on Kentucky Bluegrass (Example B-2, plot spray treatment); conditions: 500 g ai/ha, sprayed three times every 14 days, assessed 19 days after last treatment, vs untreated (58% diseased)
Description: as §1, with “Kentucky Bluegrass (Poa pratensis L.)” for “Creeping Bentgrass (Agrostis palustris Huds.)”, “Kentucky Bluegrass.” for “Creeping Bentgrass.”

[3] = system: Colletotrichum graminicola; assay: Control of Colletotrichum graminicola on Annual Bluegrass/Creeping Bentgrass (Example B-3); conditions: 500 g ai/ha; application interval 21 days, three sprays; assessed 10 days after final application; Poa/Bentgrass, natural infection; vs untreated (44% diseased)
Description: The following EC formulation was prepared: […]
Plots of a mixture of Annual Bluegrass (Poa annua) and Creeping Bentgrass (Agrostis stolifera) naturally infected with anthracnose (Colletotrichum graminicola) were treated with quantities of formulation C which correspond to a dose shown in the table below and expressed in g ai/ha. The dose corresponding to 250 g ai/ha was sprayed four times with an interval of 14 days. The dose corresponding to 500 g ai/ha was sprayed three times with an interval of 21 days. At 23 days after the final application with the 250 g ai/ha dose, and 10 days after the final application with the 500 g ai/ha dose, disease severity was assessed visually. […] Disease control is shown as % disease control compared to untreated plots.

[4] = system: Rhizoctonia solani; assay: Control of Rhizoctonia solani on Colonial Bentgrass (Example B-4); conditions: 302 g ai/ha, application interval 14 days, three sprays, assessed 21 days after final application, natural infection, vs untreated (80% diseased)
Description: Plots of Colonial Bentgrass (Agrostis tenius Sibth.) naturally infected with brown patch (Rhizoctonia solani) were treated with quantities of formulation C which correspond to a dose shown in the table below and expressed in g ai/ha. The dose corresponding to 302 g ai/ha was sprayed three times with an interval of 14 days. The dose corresponding to 604 g ai/ha was sprayed two times with an interval of 28 days. At 21 days after the final application of both dose rates, disease severity was assessed visually. […] Disease control is shown as % disease control compared to untreated plots.

| SMILES | % Disease Control [1] | % Disease Control [2] | % Disease Control [3] | % Disease Control [4] |
| --- | --- | --- | --- | --- |
| CC(C)C1C2CCC1c1c(NC(=O)c3cn(C)nc3C(F)F)cccc12 (racemic) [Compound IAc] | 93% | 88% | 92% | 97% |
| CC(C)CC(C)c1sccc1NC(=O)c1cn(C)nc1C(F)(F)F (stereo not drawn) [Penthiopyrad, N-[2-(1,3-dimethylbutyl)-3-thienyl]-1-methyl-3-(trifluoromethyl)-1H-pyrazole-4-carboxamide, reference compound] | 57% | 21% | – | – |
